# Assay results published in patent US20260265694A1, “USE OF A VITISIN COMPOUND FOR THE PRODUCTION OF HEMATOPOIETIC CELLS” (ETABLISSEMENT FRANCAIS DU SANG, priority 2022, published 2026).
# Experiments:
# [1] = tested on: CMP isolated from peripheral blood CD34+ cells; experiment: ERYTHRO 1 PROTOCOL on sorted CMP cells; assay type: cell-based, human; conditions: CMPs, 10 μM
# Protocol: b. Isolation of CMP and MEP Progenitors The CD34^+ cells previously isolated via an immunomagnetic technique were marked with anti-CD34-BV421 (1:100 000), anti-CD45RA-BB517 (1:100 000), anti-CD123-Alexa647 (1.5:100 000) antibodies (BD Pharmingen) and a cocktail of anti-LIN-PE antibodies (2:100 000) for 15 minutes. The LIN cocktail antibodies are directed against markers specific to mature cells (CD2, CD3, CD4, CD7, CD8, CD10, CD11b, CD14, CD19, CD20, CD56, CD235a). This LIN cocktail thus allows enrichment in “LIN^neg” immature cells by depletion of mature cells. After incubation with these antibodies, the cells are rinsed with a solution of PBS^+ (PBS+2% Fetal Calf Serum (FCS)) and centrifuged (430×g, 10 min. 4° C.). After resuspension of the cells in PBS^+, CMPs with the phenotype CD34^+LIN^negCD123^+CD45RA^neg and MEPs with the phenotype CD34^+LIN^negCD123^negCD45RA^neg are sorted and harvested using an ARIA cell sorter (Manz et al., 2002). c. Isolation of BFU-E and CFU-E Progenitors Placental blood CD34^+ cells, previously isolated by immunomagnetic sorting, are marked with antibodies specific to surface antigens allowing them to target and discriminate BFU-E primitive erythrocyte progenitors, namely anti-CD34, anti-GPA, anti CD123 and anti-CD36 antibodies. Primitive erythrocyte progenitors (BFU-Es) are defined by the following phenotype: CD34^+CD123^negCD36^negGPA^neg. […]
# [2] = tested on: SP cells (CD34+DCVlow) isolated from peripheral blood CD34+ cells; experiment: ERYTHRO 1 PROTOCOL on sorted SP cells; assay type: cell-based, human; conditions: SPs, 10 μM, as early as D7, FIG. 4B
# Protocol: SP cells are identifiable by virtue of their property of expelling certain dyes such as Hoescht or Dye Cycle Violet (DCV)). This expulsion takes place by means of […] ATP Binding Cassette (ABCG2) pumps (Brunet de la Grange et al., 2013). To identify SP cells within previously isolated CD34^+ cells, they are incubated with a DCV dye (5 μM) in DMEM^+ medium (Dulbecco's Modified Eagle's Medium (DMEM), 2% FCS, 1% HEPES) for 2 h at 37° C. and in the dark. After incubation, all manipulations up to final cell sorting are performed on ice and in PBS^+ medium (PBS, 2% FCS), a glucose- and calcium-depleted medium which stops the expulsion pumps. […] CD34^+ cells having a low fluorescence intensity for the DCV marker (CD34^+ SP cells) are analyzed (UV 350 nm or violet 405 nm), sorted and recovered using an ARIA cell sorter (Becton Dickinson). […]
# In order to test the effect of vitisin B in this context, the culturing is performed in the absence and presence of vitisin B: • CTRL condition: Absence of vitisin B throughout the entire protocol. • Test condition: Presence of vitisin B at 5, 10, 15, 20 or 30 μM for the entire duration of the protocol (phase 1+phase 2). During the culture protocol, the differentiation product is analyzed by quantifying proliferation (counting) and analyzing erythrocyte differentiation markers by means of flow cytometry, using the markers CD71 and CD235a. c. […]
smiles,measurement,setting,value
"Oc1ccc(C2Oc3ccc(/C=C/c4cc(O)cc5c4[C@H](c4cc(O)cc(O)c4)[C@@H](c4ccc(O)cc4)O5)cc3C2c2cc(O)cc3c2C(c2cc(O)cc(O)c2)C(c2ccc(O)cc2)O3)cc1 (stereo in doubt) [vitisin B, 5-[(2R,2'S,3R,3'S)-5-[(1E)-2-[(2S,3S)-3-(3,5-Dihydroxyphenyl)-2,3-dihydro-6-hydroxy-2-(4-hydroxyphenyl)-4-benzofuranyl]ethenyl]-2,2′,3,3′-tetrahydro-6′-hydroxy-2,2′-bis(4-hydroxyphenyl)[3,4′-bibenzofuran]-3′-yl]-1,3-benzenediol]",erythrocyte differentiation (acquisition of the phenotype CD71+GPA+),[1]; FIG. 4A,acceleration of erythrocyte differentiation
same,reduction relative to the control in CD71 membrane expression,"[1]; as early as D7, FIG. 4B",up to 40%
same,reduction relative to the control in CD71 membrane expression,[2],up to 40%
